Results as given in US12617797B2, “Substituted pyrazolo [1,5-a]pyrimidines having multimodal activity against pain” (ESTEVE PHARMACEUTICALS, S.A., priority 2020, dated 2026).

Columns and labels:
Human σ1 receptor = target: T1, Human σ1 receptor (Homo sapiens, UniProt Q99720); assay: Human σ1 receptor radioligand assay ([3H](+)-pentazocine binding, transfected HEK-293 membranes); conditions: binding to σ1 receptor expressed as Ki; + also covers inhibition between 1% and 50%; read-out: σ-1 binding
T1 construct: expressed in transfected cells; host or cells: HEK-293
T1 sequence (Q99720 whole entry): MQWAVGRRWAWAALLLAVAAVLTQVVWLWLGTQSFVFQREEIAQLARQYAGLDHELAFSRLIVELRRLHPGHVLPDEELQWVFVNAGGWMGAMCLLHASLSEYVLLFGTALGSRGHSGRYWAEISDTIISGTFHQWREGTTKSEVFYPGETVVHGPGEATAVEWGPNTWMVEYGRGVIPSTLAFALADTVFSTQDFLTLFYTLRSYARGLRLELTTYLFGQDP
Procedure, shortened: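 Ki was derived from five test concentrations, or % inhibition was measured at a single 1 or 10 μM dose, against 5 nM [3H](+)-pentazocine. Incubation was 120 min at 37° C in 50 mM Tris-HCl pH 8 with 7 μg HEK-293 membranes, and 10 μM haloperidol set non-specific binding. Bound radioactivity was counted after filtration.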

[1] = target: Human α2δ-1 subunit of Cav2.2 calcium channel (Homo sapiens, UniProt P54289); assay: Human α2δ-1 subunit of Cav2.2 calcium channel assay ([3H]-gabapentin binding); conditions: binding to the α2δ-1 subunit of voltage-gated calcium channels expressed as Ki; + also covers inhibition between 1% and 50%
Chain of Human α2δ-1 subunit of Cav2.2 calcium channel (P54289 25-1103): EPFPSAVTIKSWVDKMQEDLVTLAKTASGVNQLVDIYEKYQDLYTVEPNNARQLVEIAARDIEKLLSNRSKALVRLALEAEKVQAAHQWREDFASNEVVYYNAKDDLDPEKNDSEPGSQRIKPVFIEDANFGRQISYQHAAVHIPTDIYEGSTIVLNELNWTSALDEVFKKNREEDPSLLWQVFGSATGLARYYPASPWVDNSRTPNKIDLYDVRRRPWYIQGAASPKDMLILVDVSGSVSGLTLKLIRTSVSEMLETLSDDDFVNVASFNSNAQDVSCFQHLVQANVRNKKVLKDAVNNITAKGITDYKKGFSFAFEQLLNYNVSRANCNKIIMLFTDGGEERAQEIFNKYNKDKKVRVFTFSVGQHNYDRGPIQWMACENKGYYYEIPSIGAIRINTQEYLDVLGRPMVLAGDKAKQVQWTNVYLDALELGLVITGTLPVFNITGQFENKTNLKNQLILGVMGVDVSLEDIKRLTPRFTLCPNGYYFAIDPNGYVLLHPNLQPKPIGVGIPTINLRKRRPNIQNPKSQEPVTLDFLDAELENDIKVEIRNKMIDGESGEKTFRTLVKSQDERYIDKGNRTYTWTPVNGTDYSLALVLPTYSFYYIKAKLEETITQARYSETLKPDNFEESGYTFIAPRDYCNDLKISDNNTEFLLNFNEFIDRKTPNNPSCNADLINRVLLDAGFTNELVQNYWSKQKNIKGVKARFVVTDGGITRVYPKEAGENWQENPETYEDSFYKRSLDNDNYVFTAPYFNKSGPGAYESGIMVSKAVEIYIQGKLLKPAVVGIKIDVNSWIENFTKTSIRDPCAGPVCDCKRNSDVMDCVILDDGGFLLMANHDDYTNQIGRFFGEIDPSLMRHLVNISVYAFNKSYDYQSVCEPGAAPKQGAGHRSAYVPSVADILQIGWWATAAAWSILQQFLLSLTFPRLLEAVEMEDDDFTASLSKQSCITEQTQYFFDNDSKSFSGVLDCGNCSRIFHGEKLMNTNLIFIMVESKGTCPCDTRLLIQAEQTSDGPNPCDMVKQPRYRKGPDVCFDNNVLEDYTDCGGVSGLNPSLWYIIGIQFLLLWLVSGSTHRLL
Procedure, shortened: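 Displacement of 15 nM [3H]-gabapentin from human α2δ-1-enriched membranes (Hepes-KOH 10 mM, pH 7.4; 27 °C, 60 min) read by filter binding and radioactivity counting. Values are single-point % inhibition (1 or 10 μM) or five-point Ki; 10 μM pregabalin sets NSB.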

Row | Structure (SMILES) | Ki (Human σ1 receptor) | Ki [1]
1 | Cc1nn2c(C3CCCN(Cc4ccccc4)C3)ccnc2c1CNCc1ccccc1 (centres unmarked) [Example 98, N-Benzyl-1-(7-(1-benzylpiperidin-3-yl)-2-methylpyrazolo[1,5-a]pyrimidin-3-yl)methanamine] | < 0.5 µM | 0.5 to 5 µM
2 | Cc1nn2c(C3CCCN(Cc4ccccc4)C3)ccnc2c1CN (centres unmarked) [Example 99, (7-(1-Benzylpiperidin-3-yl)-2-methylpyrazolo[1,5-a]pyrimidin-3-yl)methanamine] | > 1 µM | 0.5 to 5 µM
3 | Cc1nn2c(C3CCCN(Cc4ccccc4)C3)ccnc2c1CN1CCNCC1 (centres unmarked) [Example 100, 7-(1-Benzylpiperidin-3-yl)-2-methyl-3-(piperazin-1-ylmethyl)pyrazolo[1,5-a]pyrimidine] | > 1 µM | 0.5 to 5 µM
4 | Cc1nn2c(C3CCCN(Cc4ccccc4)C3)ccnc2c1COCc1ccccc1 (centres unmarked) [Example 101, 3-((Benzyloxy)methyl)-7-(1-benzylpiperidin-3-yl)-2-methylpyrazolo[1,5-a]pyrimidine] | < 0.5 µM | > 5 µM
5 | Cc1nn2c(C3CCCN(Cc4ccccc4)C3)ccnc2c1COc1ccccc1 (centres unmarked) [Example 102, 7-(1-Benzylpiperidin-3-yl)-2-methyl-3-(phenoxymethyl)pyrazolo[1,5-a]pyrimidine] | > 1 µM | > 5 µM
6 | Cc1nn2c(C3CCCN(Cc4ccccc4)C3)ccnc2c1CCCN (centres unmarked) [Example 103, 3-(7-(1-Benzylpiperidin-3-yl)-2-methylpyrazolo[1,5-a]pyrimidin-3-yl)propan-1-amine] | > 1 µM | 0.5 to 5 µM
7 | Cc1nn2c([C@@H]3CCCN([C@H](CO)c4ccccc4)C3)ccnc2c1-c1ccncc1 [Example 106, (S)-2-((R)-3-(2-Methyl-3-(pyridin-4-yl)pyrazolo[1,5-a]pyrimidin-7-yl)piperidin-1-yl)-2-phenylethanol] | > 1 µM | > 5 µM
8 | Cc1nn2c([C@H]3CCCN([C@H](CO)c4ccccc4)C3)ccnc2c1-c1ccncc1 [Example 107, (S)-2-((S)-3-(2-methyl-3-(pyridin-4-yl)pyrazolo[1,5-a]pyrimidin-7-yl)piperidin-1-yl)-2-phenylethanol] | > 1 µM | > 5 µM
9 | Cc1nn2c([C@H]3CCCN([C@@H](CO)c4ccccc4)C3)ccnc2c1-c1ccncc1 [Example 108, (R)-2-((S)-3-(2-methyl-3-(pyridin-4-yl)pyrazolo[1,5-a]pyrimidin-7-yl)piperidin-1-yl)-2-phenylethanol] | > 1 µM | > 5 µM
10 | Cc1nn2c([C@@H]3CCCN([C@@H](CO)c4ccccc4)C3)ccnc2c1-c1ccncc1 [Example 109, (R)-2-((R)-3-(2-methyl-3-(pyridin-4-yl)pyrazolo[1,5-a]pyrimidin-7-yl)piperidin-1-yl)-2-phenylethanol] | > 1 µM | 0.5 to 5 µM
11 | Clc1ccc(CN2CCCC(c3ccnc4cc(Br)nn34)C2)cc1 (centres unmarked) [Example 110, 2-Bromo-7-(1-(4-chlorobenzyl)piperidin-3-yl)pyrazolo[1,5-a]pyrimidine] | 0.5 to 1 µM | > 5 µM
12 | Clc1cccc(CN2CCCC(c3ccnc4cc(Br)nn34)C2)c1 (centres unmarked) [Example 111, 2-Bromo-7-(1-(3-chlorobenzyl)piperidin-3-yl)pyrazolo[1,5-a]pyrimidine] | > 1 µM | > 5 µM
13 | Clc1ccc(CN2CCCC(c3ccnc4cc(Br)nn34)C2)cc1Cl (centres unmarked) [Example 112, 2-Bromo-7-(1-(3,4-dichlorobenzyl)piperidin-3-yl)pyrazolo[1,5-a]pyrimidine] | > 1 µM | > 5 µM
14 | Fc1ccc(CN2CCCC(c3ccnc4cc(Br)nn34)C2)cc1F (centres unmarked) [Example 113, 2-Bromo-7-(1-(3,4-difluorobenzyl)piperidin-3-yl)pyrazolo[1,5-a]pyrimidine] | > 1 µM | 0.5 to 5 µM
15 | COc1ncccc1-c1cc2nccc(C3CCCN(Cc4ccc(Cl)cc4)C3)n2n1 (centres unmarked) [Example 114, 7-(1-(4-Chlorobenzyl)piperidin-3-yl)-2-(2-methoxypyridin-3-yl)pyrazolo[1,5-a]pyrimidine] | > 1 µM | > 5 µM
16 | Oc1ncccc1-c1cc2nccc(C3CCCN(Cc4ccc(Cl)cc4)C3)n2n1 (centres unmarked) [Example 115, 3-(7-(1-(4-chlorobenzyl)piperidin-3-yl)pyrazolo[1,5-a]pyrimidin-2-yl)pyridin-2-ol] | > 1 µM | > 5 µM
17 | COc1ncccc1-c1cc2nccc(C3CCCN(Cc4cccc(Cl)c4)C3)n2n1 (centres unmarked) [Example 116, 7-(1-(3-Chlorobenzyl)piperidin-3-yl)-2-(2-methoxypyridin-3-yl)pyrazolo[1,5-a]pyrimidine] | > 1 µM | > 5 µM

Row | Structure (SMILES) | Ki (Human σ1 receptor) | Ki [1]
18 | Oc1ncccc1-c1cc2nccc(C3CCCN(Cc4cccc(Cl)c4)C3)n2n1 (centres unmarked) [Example 117, 3-(7-(1-(3-Chlorobenzyl)piperidin-3-yl)pyrazolo[1,5-a]pyrimidin-2-yl)pyridin-2-ol] | > 1 µM | > 5 µM
19 | COc1ncccc1-c1cc2nccc(C3CCCN(Cc4ccc(Cl)c(Cl)c4)C3)n2n1 (centres unmarked) [Example 118, 7-(1-(3,4-Dichlorobenzyl)piperidin-3-yl)-2-(2-methoxypyridin-3-yl)pyrazolo[1,5-a]pyrimidine] | > 1 µM | > 5 µM
20 | COc1ncccc1-c1cc2nccc(C3CCCN(Cc4ccc(F)c(F)c4)C3)n2n1 (centres unmarked) [Example 119, 7-(1-(3,4-Difluorobenzyl)piperidin-3-yl)-2-(2-methoxypyridin-3-yl)pyrazolo[1,5-a]pyrimidine] | > 1 µM | > 5 µM
21 | Clc1ccc(CN2CCCC(c3ccnc4c(CNCC5CCOCC5)c(Br)nn34)C2)cc1 (centres unmarked) [Example 120, 1-(2-Bromo-7-(1-(4-chlorobenzyl)piperidin-3-yl)pyrazolo[1,5-a]pyrimidin-3-yl)-N-((tetrahydro-2H-pyran-4-yl)methyl)methanamine] | < 0.5 µM | < 0.5 µM
22 | Cc1nn2c(C3CCCN(Cc4ccc(Cl)cc4)C3)ccnc2c1-c1ccncc1 (centres unmarked) [Example 121, 7-(1-(4-Chlorobenzyl)piperidin-3-yl)-2-methyl-3-(pyridin-4-yl)pyrazolo[1,5-a]pyrimidine] | 0.5 to 1 µM | 0.5 to 5 µM
23 | Cc1nn2c(C3CCCN(Cc4cccc(Cl)c4)C3)ccnc2c1-c1ccncc1 (centres unmarked) [Example 122, 7-(1-(3-Chlorobenzyl)piperidin-3-yl)-2-methyl-3-(pyridin-4-yl)pyrazolo[1,5-a]pyrimidine] | > 1 µM | 0.5 to 5 µM
24 | Cc1nn2c(C3CCCN(Cc4ccc(Cl)c(Cl)c4)C3)ccnc2c1-c1ccncc1 (centres unmarked) [Example 123, 7-(1-(3,4-Dichlorobenzyl)piperidin-3-yl)-2-methyl-3-(pyridin-4-yl)pyrazolo[1,5-a]pyrimidine] | > 1 µM | 0.5 to 5 µM
25 | Cc1nn2c(C3CCCN(Cc4ccc(Cl)cc4Cl)C3)ccnc2c1-c1ccncc1 (centres unmarked) [Example 124, 7-(1-(2,4-Dichlorobenzyl)piperidin-3-yl)-2-methyl-3-(pyridin-4-yl)pyrazolo[1,5-a]pyrimidine] | 0.5 to 1 µM | > 5 µM
26 | Cc1nn2c(C3CCCN(Cc4ccc(F)c(F)c4)C3)ccnc2c1-c1ccncc1 (centres unmarked) [Example 125, 7-(1-(3,4-Difluorobenzyl)piperidin-3-yl)-2-methyl-3-(pyridin-4-yl)pyrazolo[1,5-a]pyrimidine] | > 1 µM | 0.5 to 5 µM
27 | Cc1nn2c(C3CCCN(Cc4ccc(C(F)(F)F)cc4)C3)ccnc2c1-c1ccncc1 (centres unmarked) [Example 126, 2-Methyl-3-(pyridin-4-yl)-7-(1-(4-(trifluoromethyl)benzyl)piperidin-3-yl)pyrazolo[1,5-a]pyrimidine] | > 1 µM | > 5 µM
28 | Cc1nn2c(C3CCCN(CCC(C)C)C3)ccnc2c1-c1ccncc1 (centres unmarked) [Example 127, 7-(1-Isopentylpiperidin-3-yl)-2-methyl-3-(pyridin-4-yl)pyrazolo[1,5-a]pyrimidine] | < 0.5 µM | > 5 µM
29 | Cc1nn2c(C3CCCN(Cc4ccc(Cl)cc4)C3)ccnc2c1-c1cccc(C(=O)N(C)C)c1 (centres unmarked) [Example 128, 3-(7-(1-(4-Chlorobenzyl)piperidin-3-yl)-2-methylpyrazolo[1,5-a]pyrimidin-3-yl)-N,N-dimethylbenzamide] | > 1 µM | > 5 µM
30 | Cc1nn2c(C3CCCN(Cc4ccc(Cl)cc4)C3)ccnc2c1-c1ccc(C(N)=O)cc1 (centres unmarked) [Example 129, 4-(7-(1-(4-Chlorobenzyl)piperidin-3-yl)-2-methylpyrazolo[1,5-a]pyrimidin-3-yl)benzamide] | > 1 µM | > 5 µM
31 | Cc1nn2c(C3CCCN(Cc4ccc(Cl)cc4)C3)ccnc2c1-c1cncnc1 (centres unmarked) [Example 130, 7-(1-(4-Chlorobenzyl)piperidin-3-yl)-2-methyl-3-(pyrimidin-5-yl)pyrazolo[1,5-a]pyrimidine] | > 1 µM | 0.5 to 5 µM
32 | Cc1nn2c(C3CCCN(Cc4ccc(Cl)cc4)C3)ccnc2c1-c1cnc(N)nc1 (centres unmarked) [Example 131, 5-(7-(1-(4-Chlorobenzyl)piperidin-3-yl)-2-methylpyrazolo[1,5-a]pyrimidin-3-yl)pyrimidin-2-amine] | > 1 µM | > 5 µM
33 | Cc1nn2c(C3CCCN(Cc4ccc(Cl)cc4)C3)ccnc2c1-c1cnn(C)c1 (centres unmarked) [Example 132, 7-(1-(4-Chlorobenzyl)piperidin-3-yl)-2-methyl-3-(1-methyl-1H-pyrazol-4-yl)pyrazolo[1,5-a]pyrimidine] | > 1 µM | 0.5 to 5 µM
34 | Cc1noc(C)c1-c1c(C)nn2c(C3CCCN(Cc4ccc(Cl)cc4)C3)ccnc12 (centres unmarked) [Example 133, 4-(7-(1-(4-Chlorobenzyl)piperidin-3-yl)-2-methylpyrazolo[1,5-a]pyrimidin-3-yl)-3,5-dimethylisoxazole] | > 1 µM | > 5 µM
